In patent EP0864571A1, “APOVINCAMINIC ACID DERIVATIVE AND MEDICINE CONTAINING THE SAME” (Hidaka, Hiroyoshi, priority 1995, dated 1997):
Read-outs that look alike come from different tables or passages of the source.

Key:
[1] = test system: platelet-rich plasma (PRP); experiment: Platelet aggregation inhibition test (ex vivo PRP after oral administration); type: in vivo; conditions: guinea pigs, blood one hour after administration; for Platelet aggregation inhibition rate (%) Collagen: collagen (2.5 µg/mg); for Platelet aggregation inhibition rate (%) Arachidonic acid: arachidonic acid (0.1 mM)
Procedure: A test was conducted using male S1c:Hartley guinea pigs, which were 5 to 7 weeks old and had body weights of from 274 to 554 g, in groups each of which consisted of five guinea pigs. […] One hour after the administration, blood was collected from the abdominal aorta, and a platelet-rich plasma (PRP) was prepared. […]

[2] = Acute toxicity (single intravenous shot, approximate LD50); conditions: mouse, in vivo, male S1C:ICR mice, single shot into caudal vein
Procedure: A test was conducted using male S1C:ICR mice, which were 6 to 7 weeks old and had body weights of from 18 to 36 g, in groups each which consisted of 3 mice.
Predetermined amounts of compounds according to the present invention and a comparative drug (vinpocetine phosphate), each of which had been dissolved in a 5% aqueous solution of glucose, were administered as single shots into the caudal veins of the mice, and the mice were then observed to determine whether they remained under normal conditions or died. Upon expiration of an observation period, their approximate LD50 values were calculated by the provit method.

[3] = test system: superior mesenteric artery; experiment: Vascular smooth muscle relaxing activity (potassium chloride-contracted helical artery preparation); design: species or system rabbit; conditions: read-out: Vascular smooth muscle relaxing activity (ED50)
Procedure: Each rabbit was sacrificed under exsanguination, and an incision was then made in the flank thereof. […] After this preparation cut was caused to contract with potassium chloride to maintain it under predetermined tension, a given test compound was added cumulatively.

washed platelets = experiment: Platelet aggregation inhibiting activity (washed platelets, collagen, nephelometric analysis); type: cell-based, normal volunteer; conditions: Homo sapiens, read-out: Platelet aggregation inhibiting activity (IC50)
Procedure: Blood, which had been collected from a normal volunteer and had immediately been mixed with 1/10 volume of a 0.38% agueous solution of sodium citrate, was converted into a platelet-rich plasma (PRP) by centrifugation (700 x G, 10 minutes). To the PRP, 1/6 volume of the ACD solution (2.2% sodium citrate, 0.8% citric acid, 2.2% glucose - prepared before use) was added, followed by centrifugation (1,500 x G, 10 minutes). A platelet pellet so obtained was suspended in a modified HEPES Tyrode solution (135 mM sodium chloride, 2.7 mM potassium chloride, 1 mM magnesium chloride, 0.1 mg/mℓ glucose, 20 mM HEPE; pH 7.4). After 1/6 volume of the ACD solution was added to the suspension, further centrifugation was conducted (1,500 x G, 5 minutes). A platelet pellet so obtained was suspended in the modified HEPES Tyrode solution, whereby a washed platelet suspension containing about 300,000 platelets/µℓ therein was obtained.
Into 270-µℓ aliquots of the washed platelet suspension obtained above, 3-µℓ aliquots of solutions of a given test compound at varied concentrations in an appropriate solvent were added, respectively. The resulting mixtures were each preheated at 37°C for 2 minutes and, subsequent to the addition of 30 µℓ of a 20 µg/mℓ solution of collagen, an absorbance was measured by a 4-channel aggregometer ("HEMA Tracer 601"; manufactured by Nicoh Bioscience Co., Ltd.).
As a control, an absorption at the time of maximum aggregation by collagen in the presence of a solvent making use of a given test compound was assumed to be 100 whereas an absorbance before the addition of collagen was assumed to be 0. An inhibition rate (%) was then calculated from an absorbance at the time of maximum aggregation by collagen when the given test compound was added, and a concentration (µM) of the given test compound which achieves 50% inhibition was expressed as "IC50".

[4] = test system: Vertebral blood flow and femoral blood flow; experiment: Blood flow enhancement test (anesthetized beagles, electromagnetic flow probe); type: in vivo; conditions: femoral vein administration
Procedure: A test was conducted using male beagles, which were 9 to 13 months old, had body weights of from 9 to 10 kg and had been anesthetized with pentobarbital sodium (25-30 mg/kg), in groups each of which consisted of four beagles. Into one of the femoral veins of each of the beagles, a given test compound in a form dissolved in a 5% agueous solution of glucose was administered at a dose of from 0.1 to 1.0 mg/kg. Vertebral blood flow and femoral blood flow were measured using an electromagnetic flow probe connected to a magnetic flow meter.

[5] = Oryctolagus cuniculus, rabbit superior mesenteric artery contracted with potassium chloride, concentration for 50% relaxation
[6] = washed platelets of a normal volunteer, aggregation by collagen

EC50 [3, 5] [nM]	Compound	IC50 (washed platelets; [6]) [nM]	also measured
2100	CCC12C=C(C(=O)OC)n3c4c(c5ccc(NS(=O)(=O)c6ccccc6)cc53)CCN(CCC1)C42 (stereo not shown) [Compound 2, Methyl 11-phenylsulfonylamino-apovincaminate]	380	–
1000	CCOC(=O)C1=CC2(CC)CCCN3CCc4c(n1c1cc(NS(=O)(=O)c5ccc(Br)cc5)ccc41)C32 (stereo not shown) [Compound 4, Ethyl 11-(4-bromophenyl)sulfonylamino-apovincaminate]	760	–
1300	CCC12C=C(C(=O)OC(C)C)n3c4c(c5ccc(NS(=O)(=O)c6ccc(Cl)cc6)cc53)CCN(CCC1)C42 (stereo not shown) [Compound 5, Isopropyl 11-(4-chlorophenyl)sulfonylamino-apovincaminate]	940	–
2000	CCOC(=O)C1=CC2(CC)CCCN3CCc4c(n1c1cc(NS(=O)(=O)c5ccc(F)cc5)ccc41)C32 (stereo not shown) [Compound 7, Ethyl 11-(4-fluorophenyl)sulfonylamino-apovincaminate]	910	–
2000	CCOC(=O)C1=CC2(CC)CCCN3CCc4c(n1c1cc(NS(=O)(=O)c5cccc6ccccc56)ccc41)C32 (stereo not shown) [Compound 10, Ethyl 11-(1-naphthalene)sulfonylamino-apovincaminate]	9200	–
300	CCOC(=O)C1=CC2(CC)CCCN3CCc4c(n1c1cc(NS(=O)(=O)Cc5ccccc5)ccc41)C32 (stereo not shown) [Compound 13, Ethyl 11-benzylsulfonylamino-apovincaminate]	4400	–
1200	CCOC(=O)C1=CC2(CC)CCCN3CCc4c(n1c1cc(NS(=O)(=O)c5ccc(NC(C)=O)cc5)ccc41)C32 (stereo not shown) [Compound 14, Ethyl 11-(4-acetylaminophenyl)sulfonyl-amino-apovincaminate]	470	–
2100	CCOC(=O)C1=CC2(CC)CCCN3CCc4c(n1c1cc(NS(=O)(=O)c5ccc(OC)cc5[N+](=O)[O-])ccc41)C32 (stereo not shown) [Compound 21, Ethyl 11-(4-methoxy-2-nitrophenyl)sulfonylamino-apovincaminate]	400	–
1200	CCOC(=O)C1=CC2(CC)CCCN3CCc4c(n1c1cc(NS(=O)(=O)c5c(F)c(F)c(F)c(F)c5F)ccc41)C32 (stereo not shown) [Compound 23, Ethyl 11-(2,3,4,5,6-pentafluorophenyl)sulfonylamino-apovincaminate]	580	–

Continued, compound first:

Compound	EC50 [3, 5] [nM]	IC50 (washed platelets; [6]) [nM]	also measured
O=C1CCc2cc(OCCCCc3nnnn3C3CCCCC3)ccc2N1 [Cilostazol, reference compound]	–	–	Platelet aggregation inhibition rate (%) Collagen ([1]; oral 100 mg/kg): 12.4%; Platelet aggregation inhibition rate (%) Arachidonic acid ([1]; oral 300 mg/kg): 22.1%; Platelet aggregation inhibition rate (%) Collagen ([1]; oral 300 mg/kg): 74.7%
CCOC(=O)C1=CC2(CC)CCCN3CCc4c(n1c1cc(NS(=O)(=O)c5ccccc5)ccc41)C32 (stereo not shown) [Compound 1, ethyl 11-phenylsulfonylamino-apovin-caminate]	–	–	LD50 [2]: 85 mg/kg; Platelet aggregation inhibition rate (%) Arachidonic acid ([1]; oral 100 mg/kg): 45.2%; Platelet aggregation inhibition rate (%) Collagen ([1]; oral 100 mg/kg): 85.4%
CCC12C=C(C(=O)OC)n3c4c(c5ccc(NS(=O)(=O)c6ccc(Cl)cc6)cc53)CCN(CCC1)C42 (stereo not shown) [Compound 3, Methyl 11-(4-chlorophenyl)sulfonylamino-apovincaminate]	1700	250	–
CCCOC(=O)C1=CC2(CC)CCCN3CCc4c(n1c1cc(NS(=O)(=O)c5ccc(Cl)cc5)ccc41)C32 (stereo not shown) [Compound 6, Propyl 11-(4-chlorophenyl)sulfonylamino-apovincaminate]	1300	960	–
CCOC(=O)C1=CC2(CC)CCCN3CCc4c(n1c1cc(NS(=O)(=O)c5ccc(I)cc5)ccc41)C32 (stereo not shown) [Compound 8, Ethyl 11-(4-iodophenyl)sulfonylamino-apovincaminate]	1300	810	–
CCOC(=O)C1=CC2(CC)CCCN3CCc4c(n1c1cc(NS(=O)(=O)c5cc(Cl)ccc5Cl)ccc41)C32 (stereo not shown) [Compound 9, Ethyl 11-(2,5-dichlorophenyl)sulfonylamino-apovincaminate]	900	880	–
CCOC(=O)C1=CC2(CC)CCCN3CCc4c(n1c1cc(NS(=O)(=O)c5ccc(C)cc5)ccc41)C32 (stereo not shown) [Compound 11, Ethyl 11-(4-toluene)sulfonylamino-apovincaminate]	–	–	LD50 [2]: 125 mg/kg; EC50 ([3]; Oryctolagus cuniculus): 1000 nM; IC50 (washed platelets): 50 nM; Bloodflow increment (%) Femoral artery ([4]; dose 0.1 mg/kg): 2.9%; Bloodflow increment (%) Vertebral artery ([4]; dose 0.1 mg/kg): 5.4%; Bloodflow increment (%) Femoral artery ([4]; dose 0.3 mg/kg): 5.1%; Bloodflow increment (%) Vertebral artery ([4]; dose 0.3 mg/kg): 11.8%; Bloodflow increment (%) Femoral artery ([4]; dose 1.0 mg/kg): 4.5%; Bloodflow increment (%) Vertebral artery ([4]; dose 1.0 mg/kg): 32.5%; Platelet aggregation inhibition rate (%) Arachidonic acid ([1]; oral 100 mg/kg): 33.9%; Platelet aggregation inhibition rate (%) Collagen ([1]; oral 100 mg/kg): 49.1%
CCOC(=O)C1=CC2(CC)CCCN3CCc4c(n1c1cc(NS(=O)(=O)c5c(C)cc(C)cc5C)ccc41)C32 (stereo not shown) [Compound 12, Ethyl 11-mesytylenesulfonylamino-apovincaminate]	–	–	LD50 [2]: 50 mg/kg; Platelet aggregation inhibition rate (%) Collagen ([1]; oral 100 mg/kg): 13.0%
CCOC(=O)C1=CC2(CC)CCCN3CCc4c(n1c1cc(NS(=O)(=O)c5cccc6cccnc56)ccc41)C32 (stereo not shown) [Compound 15, Ethyl 11-(8-quinoline)sulfonylamino-apovincaminate]	500	4100	–
CCOC(=O)C1=CC2(CC)CCCN3CCc4c(n1c1cc(NS(=O)(=O)c5ccc(OC)cc5)ccc41)C32 (stereo not shown) [Compound 16, Ethyl 11-(4-methoxyphenyl) sulfonylamino-apovincaminate]	700	1000	–
CCOC(=O)C1=CC2(CC)CCCN3CCc4c(n1c1cc(NS(=O)(=O)c5cc(C)ccc5C)ccc41)C32 (stereo not shown) [Compound 17, Ethyl 11-(2,5-dimethylphenyl)sulfonyl-amino-apovincaminate]	710	720	–
CCOC(=O)C1=CC2(CC)CCCN3CCc4c(n1c1cc(NS(=O)(=O)c5cccs5)ccc41)C32 (stereo not shown) [Compound 18, Ethyl 11-(2-thiophene)sulfonylamino-apovincaminate]	630	400	–
CCOC(=O)C1=CC2(CC)CCCN3CCc4c(n1c1cc(NS(=O)(=O)c5ccccc5C(=O)OC)ccc41)C32 (stereo not shown) [Compound 19, Ethyl 11-(2-methoxycarbonylphenyl)sulfonylamino-apovincaminate]	200	1800	–
CCOC(=O)C1=C[C@]2(CC)CCCN3CCc4c(n1c1cc(NS(=O)(=O)c5c(C(C)C)cc(C(C)C)cc5C(C)C)ccc41)[C@@H]32 [Compound 20, Ethyl 11-(2,4,6-triisopropylphenyl)sulfonylamino-apovincaminate]	–	–	EC50 ([3]; rabbit superior mesenteric artery contracted with potassium chloride, concentration for 50% relaxation): 930 nM
CCOC(=O)C1=CC2(CC)CCCN3CCc4c(n1c1cc(NS(=O)(=O)c5ccc6ccccc6c5)ccc41)C32 (stereo not shown) [Compound 22, Ethyl 11-(2-naphthalene)sulfonylamino-apovincaminate]	860	280	–
CCOC(=O)C1=CC2(CC)CCCN3CCc4c(n1c1cc(NS(=O)(=O)c5cccc([N+](=O)[O-])c5)ccc41)C32 (stereo not shown) [Compound 24, Ethyl 11-(3-nitrophenyl)sulfonylamno-apovincaminate]	–	–	EC50 ([3]; Oryctolagus cuniculus): 200 nM; IC50 (washed platelets): 900 nM
CCOC(=O)C1=CC2(CC)CCCN3CCc4c(n1c1ccccc41)C32 (stereo not shown) [Vinpocetine phosphate, vinpocetine phosphate, reference compound]	–	–	LD50 [2]: 60 mg/kg
